Experiments:
[1] = tested on: IL3000 T. congolense (drug sensitive) strain; test: In vitro Alamar Blue 72 h drug sensitivity assay for T. congolense; type: cell-based, Trypanosoma congolense; settings: Trypanosoma congolense, 72 h, bloodstream form, 69 h + 3 h Resazurin, 34° C., read-out: IC50: I Org. Growth T. congolense 3 d
Outline: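 IC50 values derive from 11-point curves averaged over at least three independent runs, with fluorescence read at 536 nm excitation and 588 nm emission. Resazurin was added for a final 3 h after 69 h compound exposure of bloodstream forms (HMI medium, 20% bovine serum, 34° C, 5% CO2).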

[2] = tested on: STIB719/ILRAD560 T. vivax (drug sensitive) strain; test: Ex vivo Alamar Blue 48 h drug sensitivity assay for T. vivax; type: cell-based; settings: Trypanosoma vivax, ex vivo bloodstream form from mouse, 45 hrs + 3 hrs Resazurin, 37° C., read-out: IC50: I Hypoxanthine Incorporation T. vivax 2 d
[3] = tested on: T. cruzi amastigote (Td Tomato-modified) in Vero cells; test: In vitro IC50 measurement of T. cruzi amastigote killing using Td Tomato-modified T. cruzi; type: cell-based; settings: Trypanosoma cruzi, 72 h, fluorescence, read-out: IC50: I Org. amastigote Growth T. cruzi 3 d
Outline: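 IC50/IC90 came from nonlinear regression of Day 3 minus Day 0 fluorescence (544/612 nm), correcting for input parasites. Final compound concentrations spanned 5 nM–5 uM on Td Tomato T. cruzi-infected Vero cells, 72 h at 37 °C.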

SMILES | IC50 [1] [nM] | IC50 [2] [nM] | IC50 [3] [nM]
Cc1c(C(=O)N[C@H](C(=O)OCc2ccc(F)cc2F)C(C)C)ccc2c1B(O)OC2 [Example 6-039, 2,4-Difluorobenzyl (1-hydroxy-7-methyl-1,3-dihydrobenzo[c][1,2]oxaborole-6-carbonyl)-L-valinate] | 0.51 to 9.99 | < 0.5 | 
Cc1c(C(=O)N[C@H](C(=O)OCc2ccc(OCCCN3CCCC3)c(F)c2)C(C)C)ccc2c1B(O)OC2 [Example 6-246, 3-Fluoro-4-(3-(pyrrolidin-1-yl)propoxy)benzyl (1-hydroxy-7-methyl-1,3-dihydrobenzo[c][1,2]oxaborole-6-carbonyl)-L-valinate] | 0.51 to 9.99 | < 0.5 | 
CCc1c(C(=O)N[C@H](C(=O)OCc2ccc(F)cc2)C(C)C)ccc2c1B(O)OC2 [Example 6-052, 4-Fluorobenzyl (7-ethyl-1-hydroxy-1,3-dihydrobenzo[c][1,2]oxaborole-6-carbonyl)-L-valinate] | < 0.5 | < 0.5 | 
C[C@H](NC(=O)c1ccc2c(c1)B(O)OC2)C(=O)O[C@@H](C)c1ccccc1 [Example 6-022, (S)-1-phenylethyl (1-hydroxy-1,3-dihydrobenzo[c][1,2]oxaborole-6-carbonyl)-L-alaninate] | 10 to 5000 | 50 to 2000 | 
CC(C)[C@H](NC(=O)c1ccc2c(c1)B(O)OC2)C(=O)OCc1ccc(F)cc1F [Example 6-031, 2,4-Difluorobenzyl (1-hydroxy-1,3-dihydrobenzo[c][1,2]oxaborole-6-carbonyl)-L-valinate] | 0.51 to 9.99 | 0.51 to 49.9 | 
Cc1c(C(=O)N[C@H](C(=O)OCc2cnc(C(F)(F)F)nc2)C(C)C)ccc2c1B(O)OC2 [Example 6-159, (2-(Trifluoromethyl)pyrimidin-5-yl)methyl (1-hydroxy-7-methyl-1,3-dihydrobenzo[c][1,2]oxaborole-6-carbonyl)-L-valinate] | < 0.5 | < 0.5 | 
Cc1c(C(=O)N[C@H](C(=O)OCc2ccc(F)cc2)[C@H](C)O)ccc2c1B(O)OC2 [Example 6-088, 4-Fluorobenzyl (1-hydroxy-7-methyl-1,3-dihydrobenzo[c][1,2]oxaborole-6-carbonyl)-L-allothreoninate] | 0.51 to 9.99 | 0.51 to 49.9 | 
Cc1c(C(=O)N[C@H](C(=O)OCc2ccc(F)cc2)c2ccccc2)ccc2c1B(O)OC2 [Example 6-045, 4-Fluorobenzyl (S)-2-(1-hydroxy-7-methyl-1,3-dihydrobenzo[c][1,2]oxaborole-6-carboxamido)-2-phenylacetate] | < 0.5 | < 0.5 | 
Cc1c(C(=O)N(C)[C@H](C(=O)OCc2ccc(F)cc2)C(C)C)ccc2c1B(O)OC2 [Example 6-118, 4-Fluorobenzyl N-(1-hydroxy-7-methyl-1,3-dihydrobenzo[c][1,2]oxaborole-6-carbonyl)-N-methyl-L-valinate] | 10 to 5000 |  | ≥ 1000
Cc1c(C(=O)N[C@H](C(=O)OCCN2CC3(COC3)C2)C(C)C)ccc2c1B(O)OC2 [Example 6-218, 2-(2-oxa-6-azaspiro[3.3]heptan-6-yl)ethyl (1-hydroxy-7-methyl-1,3-dihydrobenzo[c][1,2]oxaborole-6-carbonyl)-L-valinate] | 10 to 5000 |  | ≥ 1000
Cc1c(C(=O)N[C@H](C(=O)OCCN2CCOC2=O)C(C)C)ccc2c1B(O)OC2 [Example 6-216, 2-(2-oxooxazolidin-3-yl)ethyl (1-hydroxy-7-methyl-1,3-dihydrobenzo[c][1,2]oxaborole-6-carbonyl)-L-valinate] | 10 to 5000 |  | ≥ 1000
Cc1c(C(=O)NC2(C(=O)OCC3CCCC3)COC2)ccc2c1B(O)OC2 [Example 6-224, Cyclopentylmethyl 3-(1-hydroxy-7-methyl-1,3-dihydrobenzo[c][1,2]oxaborole-6-carboxamido)oxetane-3-carboxylate] | 0.51 to 9.99 |  | ≤ 20
Cc1c(C(=O)N[C@H](C(=O)OCC(CO)CO)C(C)C)ccc2c1B(O)OC2 [Example 6-149, 3-hydroxy-2-(hydroxymethyl)propyl (1-hydroxy-7-methyl-1,3-dihydrobenzo[c][1,2]oxaborole-6-carbonyl)-L-valinate] | 10 to 5000 |  | ≥ 1000

Source: patent publication US11578087B2, “Oxaborole esters and uses thereof” (priority 2016, dated 2023)
